These results are taken from patent US20100184786A1, “Polar Quinazolines” (Wyeth LLC, priority 2008, published 2010).

One data set can be described thus: Brain penetration data. In kind it is in vivo. The following applies: brain/blood, read-out: Brain/Blood ratio.
A further data set relates to ABCA1 gene. The experiment in a line: Gene regulation by LXR (murine): ABCA1 gene regulation, mRNA by real-time PCR. In kind it is cell-based. As to conditions: Mus musculus; for Emax: read-out: Agonism ABCA1.
The next data set deals with T1, human LXRα (Homo sapiens, UniProt Q13133).
T1 construct: biotin (biotinylated); made in house; host or cells: E. coli
T1 sequence (Q13133 1-447): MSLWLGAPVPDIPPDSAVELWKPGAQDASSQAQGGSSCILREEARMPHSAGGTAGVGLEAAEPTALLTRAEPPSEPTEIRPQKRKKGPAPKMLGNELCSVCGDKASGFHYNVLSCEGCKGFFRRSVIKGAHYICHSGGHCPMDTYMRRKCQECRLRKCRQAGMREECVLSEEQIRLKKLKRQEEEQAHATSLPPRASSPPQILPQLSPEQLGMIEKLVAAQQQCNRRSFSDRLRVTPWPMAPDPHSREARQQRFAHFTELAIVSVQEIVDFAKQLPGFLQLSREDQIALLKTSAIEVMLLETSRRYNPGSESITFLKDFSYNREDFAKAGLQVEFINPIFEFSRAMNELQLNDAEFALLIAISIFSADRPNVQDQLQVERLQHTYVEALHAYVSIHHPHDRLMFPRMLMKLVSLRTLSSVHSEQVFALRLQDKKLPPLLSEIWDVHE
The experiment in a line: Ligand-binding test procedure for human LXRα (3H T0901317 tracer, flash plates). As to conditions: competition with 3H T0901317; read-out: hLXRa binding IC50. On the procedure:
II. Ligand-Binding Test Procedure for Human LXRa.
• Buffer: 100 mM KCl, 100 mM TRIS (pH 7.4 at +4° C.), 8.6% glycerol, 0.1 mM PMSF*, 2 mM MTG*, 0.2% CHAPS (* not used in wash buffer) • Tracer: ^3H T0901317 • Receptor source: E. coli extract from cells expressing biotinylated hLXRα. Extract was made in a similar buffer as above, but with 50 mM TRIS.
• Washed streptavidin and coated flash plates with wash buffer. • Diluted receptor extract to give Bmax˜4000 cpm and add to the wells. • Wrapped the plates in aluminum foil and stored them at +4° C. over night.
(§1) • Made a dilution series in DMSO of the test ligands. • Made a 5 nM solution of the radioactive tracer in buffer. • Mixed 2500 diluted tracer with 50 of the test ligand from each concentration of the dilution series. • Washed the receptor-coated flash plates. • Added 2000 per well of the ligand/radiolabel mixture to the receptor-coated flash plates. • Wrapped the plates in aluminum foil and incubate at +4° C. over night.
• Aspirated wells, and wash the flashed plates. Sealed the plate. • Measured the remaining radioactivity in the plate.

The target of another data set is T2, human LXRβ (Homo sapiens, UniProt P55055).
T2 construct: biotin (biotinylated); made in house; host or cells: E. coli
T2 sequence (P55055 1-460): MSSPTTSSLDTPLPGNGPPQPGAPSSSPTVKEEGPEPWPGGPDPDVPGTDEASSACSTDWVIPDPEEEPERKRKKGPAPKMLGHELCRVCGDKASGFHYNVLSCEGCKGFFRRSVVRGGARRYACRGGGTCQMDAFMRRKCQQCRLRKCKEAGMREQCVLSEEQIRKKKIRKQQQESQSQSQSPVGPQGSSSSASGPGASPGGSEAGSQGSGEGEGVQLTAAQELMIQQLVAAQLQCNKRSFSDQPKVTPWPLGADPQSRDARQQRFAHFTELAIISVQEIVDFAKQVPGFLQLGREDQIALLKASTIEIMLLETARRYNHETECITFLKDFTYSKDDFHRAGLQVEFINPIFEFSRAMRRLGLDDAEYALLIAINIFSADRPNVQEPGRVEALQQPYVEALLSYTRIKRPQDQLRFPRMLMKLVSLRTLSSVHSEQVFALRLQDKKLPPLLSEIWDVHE
The experiment in a line: Ligand-binding test procedure for human LXRβ (3H T0901317 tracer, flash plates). As to conditions: competition with 3H T0901317; read-out: hLXRb binding IC50. On the procedure: I. Ligand-Binding Test Procedure for Human LXRβ.
• Buffer: 100 mM KCl, 100 mM TRIS (pH 7.4 at +4° C.), 8.6% glycerol, 0.1 mM PMSF*, 2 mM MTG*, 0.2% CHAPS (* not used in wash buffer) • Tracer: ^3H T0901317 • Receptor source: E. coli extracted from cells expressing biotinylated hLXRβ. Extract was made in a similar buffer as above, but with 50 mM TRIS.
• Washed streptavidin and coated flash plates with wash buffer. • Diluted receptor extract to give Bmax˜4000 cpm and add to the wells. • Wrapped the plates in aluminum foil and stored them at +4° C. overnight.
as §1
• Aspirated wells, and washed the flashed plates. Sealed the plate. • Measured the remaining radioactivity in the plate.

Turning to `Cc1nc(-c2cccc(-c3cccc(S(C)(=O)=O)c3)c2)c2cccc(C(F)(F)F)c2n1`, the Kp in “Brain penetration data” amounted to 2.27.

Turning to `CS(=O)(=O)c1cccc(Oc2ccc(F)c(-c3ncnc4c(C(F)(F)F)cccc34)c2)c1`, in the data set “Brain penetration data”, the Kp was 1.45.

Regarding `CCS(=O)(=O)c1cccc(Oc2ccc(Cl)c(-c3nc(C)nc4c(C(F)(F)F)cccc34)c2)c1`, the Kp in the data set “Brain penetration data” was determined as 1.57.

Take `CS(=O)(=O)c1cccc(Oc2ccc(F)c(-c3ncnc4c(Cl)cccc34)c2)c1`: the Kp in “Brain penetration data” was 1.2.

Regarding `CCS(=O)(=O)c1cccc(Oc2ccc(F)c(-c3ncnc4c(Cl)cccc34)c2)c1`, in the data set “Brain penetration data”, the Kp came to 1.2.

In the data set on ABCA1 gene, `NC(=O)CCCS(=O)(=O)c1cccc(Oc2ccc(Cl)c(-c3ncnc4c(C(F)(F)F)cccc34)c2)c1` [Example 9, 4-[(3-{4-chloro-3-[8-(trifluoromethyl)quinazolin-4-yl]phenoxy}phenyl)sulfonyl]-butanamide] yielded an EC50 of 1900 nM. The Emax with ABCA1 gene stood at 91%. Moreover, the IC50 at human LXRα turned out to be 407 nM; at human LXRβ, 41 nM. In addition, the Kp in the data set “Brain penetration data” is 0.06.

In the case of `N#CCS(=O)(=O)c1cccc(Oc2ccc(Cl)c(-c3ncnc4c(C(F)(F)F)cccc34)c2)c1` [Example 11, [(3-{4-chloro-3-[8-(trifluoromethyl)quinazolin-4-yl]phenoxy}phenyl)sulfonyl]-acetonitrile], in the data set with ABCA1 gene, the response was half-maximal at 1760 nM (EC50) and the Emax was 95%. Besides, the IC50 on human LXRα was 425 nM. Further, the IC50 on human LXRβ came to 40 nM. In addition, in the data set “Brain penetration data”, the Kp was found to be 0.16.

For the molecule `NS(=O)(=O)c1cccc(Oc2ccc(F)c(-c3ncnc4c(C(F)(F)F)cccc34)c2)c1` [Example 21, 3-{4-fluoro-3-[8-(trifluoromethyl)quinazolin-4-yl]phenoxy}benzenesulfonamide], in the data set on ABCA1 gene, a half-maximal response (EC50) required 650 nM and the Emax is 68%. On human LXRα, the IC50 amounted to 1010 nM. In addition, on human LXRβ, the IC50 came to 121 nM.

Consider `CNS(=O)(=O)c1cccc(Oc2ccc(F)c(-c3ncnc4c(C(F)(F)F)cccc34)c2)c1` [Example 22], for which, in the data set on ABCA1 gene, a half-maximal response (EC50) required 290 nM and the Emax was 81%. The IC50 on human LXRα amounted to 149 nM. Further, the IC50 on human LXRβ was determined as 10 nM.

With `CNS(=O)(=O)c1cccc(Oc2ccc(F)c(-c3ncnc4c(Cl)cccc34)c2)c1` [Example 23, 3-[3-(8-chloroquinazolin-4-yl)-4-fluorophenoxy]-N-methylbenzenesulfonamide], in the data set with ABCA1 gene, a half-maximal response (EC50) required 450 nM and the Emax came out at 85%. In addition, the IC50 at human LXRα was 33 nM. Further, the half-inhibitory concentration (IC50) on human LXRβ amounted to 17 nM.

As for `N#CCCCS(=O)(=O)c1cccc(Oc2ccc(F)c(-c3ncnc4c(C(F)(F)F)cccc34)c2)c1` [Example 25, 4-[(3-{4-fluoro-3-[8-(trifluoromethyl)quinazolin-4-yl]phenoxy}phenyl)sulfonyl]butanenitrile], in the data set on ABCA1 gene, it took 2470 nM to reach a half-maximal effect (EC50) and the Emax was found to be 68%. In addition, at human LXRα, the IC50 came out at 1520 nM. Also, on human LXRβ, the IC50 amounted to 112 nM. The Kp in the data set “Brain penetration data” was 0.55.

Take `NCCCS(=O)(=O)c1cccc(Oc2ccc(F)c(-c3ncnc4c(C(F)(F)F)cccc34)c2)c1` [Example 28, 3-[(3-{4-fluoro-3-[8-(trifluoromethyl)quinazolin-4-yl]phenoxy}phenyl)sulfonyl]propan-1-amine]: the Emax with ABCA1 gene stood at 3%. The IC50 stood at 2990 nM on human LXRα and 116 nM on human LXRβ.

With `N#CCCCCS(=O)(=O)c1cccc(Oc2ccc(F)c(-c3ncnc4c(C(F)(F)F)cccc34)c2)c1` [Example 31, 5-[(3-{4-fluoro-3-[8-(trifluoromethyl)quinazolin-4-yl]phenoxy}phenyl)sulfonyl]pentanenitrile], the midpoint of the response in the data set with ABCA1 gene, the EC50, lay at 1760 nM. Further, the Emax in the data set with ABCA1 gene worked out at 99%. For the same molecule, the IC50 at human LXRα turned out to be 628 nM; on human LXRβ, 52 nM.

`CS(=O)(=O)CCCS(=O)(=O)c1cccc(Oc2ccc(F)c(-c3ncnc4c(C(F)(F)F)cccc34)c2)c1` [Example 32, 4-[2-fluoro-5-(3-{[3-(methylsulfonyl)propyl]sulfonyl}phenoxy)phenyl]-8-(trifluoromethyl)-quinazoline]: the half-maximal effective concentration (EC50) in the data set with ABCA1 gene was 1010 nM. Also, in the data set with ABCA1 gene, the Emax was found to be 78%. The IC50 on human LXRα is 660 nM; at human LXRβ it was 59 nM.

`CS(=O)(=O)CCCCS(=O)(=O)c1cccc(Oc2ccc(F)c(-c3ncnc4c(C(F)(F)F)cccc34)c2)c1` [Example 37, 4-[2-fluoro-5-(3-{[4-(methylsulfonyl)butyl]sulfonyl}phenoxy)phenyl]-8-(trifluoromethyl)-quinazoline] showed an EC50 with ABCA1 gene of 415 nM. Further, the Emax in the data set on ABCA1 gene was 77%. Also, the IC50 at human LXRα was found to be 536 nM; at human LXRβ, 66 nM.

As for `N#CCCCCS(=O)(=O)c1cccc(Oc2ccc(F)c(-c3ncnc4c(Cl)cccc34)c2)c1` [Example 52, 5-({3-[3-(8-chloroquinazolin-4-yl)-4-fluorophenoxy]phenyl}sulfonyl)pentanenitrile], in the data set with ABCA1 gene, the EC50 stood at 1800 nM and the Emax came to 74%. The IC50 at human LXRα was 2030 nM. In addition, the IC50 on human LXRβ stood at 107 nM.

As to `Cc1nc(-c2cc(Oc3cccc(S(=O)(=O)CCCCC#N)c3)ccc2Cl)c2cccc(C(F)(F)F)c2n1` [Example 61, 5-[(3-{4-chloro-3-[2-methyl-8-(trifluoromethyl)quinazolin-4-yl]phenoxy}phenyl)sulfonyl]-pentanenitrile], the Emax in the data set with ABCA1 gene amounted to 27%. Further, the IC50 at human LXRα is 2800 nM; on human LXRβ it was 97 nM.
